These results are taken from publication doi:10.1101/2023.03.31.535182v2 (biorxiv, 2023).

The test concerns MsGH13. The experiment in a line: UV/Vis release of 4-nitrophenolate at […] nm. The settings on record: 50 mM citric acid/phosphate, 150 mM NaCl, pH 6.5, 25 °C. The test is classed as biochemical, Marinovum sp.

The Km is the concentration of substrate that gives half-maximal velocity.

For the molecule `O=[N+]([O-])c1ccc(O[C@H]2O[C@H](CO)[C@@H](O)[C@H](O)[C@H]2O)cc1` [PNPGlc], the Km was determined as 950 ± 470 µM.
